Values quoted from earlier work, collected in patent publication US9012511B2, “Nanoparticulate cinacalcet compositions” (Alkermes Pharma Ireland Limited, priority 2010, dated 2015).
Like-named read-outs stand apart in the source and are kept apart here.

Columns and labels:
[1] = fasted subjects; estimated

SMILES: C[C@@H](NCCCc1cccc(C(F)(F)F)c1)c1cccc2ccccc12.Cl [Cinacalcet HCl, Cinacalcet hydrochloride]
- mean tmax (fasting subjects): 6 h
- mean tmax (high-fat fed subjects): 4 h
- mean tmax (low-fat fed subjects): 3.5 h
- difference in mean AUC∞ between high- and low-fat meals (single oral dose 90 mg): 12 (9.9-26) %
- mean (90% confidence intervals) AUC[infinity] increase relative to fasting (single oral dose 90 mg, high-fat, high-caloric meal): 68 (48 to 89) %
- mean (90% confidence intervals) AUC[infinity] increase relative to fasting (single oral dose 90 mg, low-fat, low-caloric meal): 50 (33 to 70) %
- absolute bioavailability [1]: 20-25%
